The first assay has as its system OVCAR-3 cells. In words: imaging-based nuclear count analysis (NCA) in OVCAR-3 cells. It is filed as cell-based. The note with it: Homo sapiens, 96 h, cultured 4 days, Hoechst 33342 nuclear count, 0.1% DMSO. On the procedure:
Test name: imaging-based nuclear count analysis (NCA) in OVCAR-3 cells
• a) When the cell confluence reached 80%-90%, the cells were treated. • b) The cells were resuspended in a medium and then counted and diluted at a desired density. • c) A cell suspension containing appropriate cells was added to the 384-well plate at 30 µL/well: 600 cells/well.
• a) 30 µL of 8% fixative (final concentration 4%) was added and the plate was incubated at room temperature for 30 min. • b) The plate was centrifuged at 1000RPM for 30s. • c) The plate was washed twice with 60 µl/well PBS. • d) After immobilization, the cells were permeabilized and stained in 60 µL of a wash buffer containing 2 µg/mL Hoechst 33342 DNA dye (1% BSA, 0.2% Triton X-100, 1X PBS). • e) The plate was sealed and incubated at room temperature in the dark for 1 h. • f) It was washed with PBS 3 times. • g) 50µLPBS/well was added and the plate was scanned using HCS. • h) Data acquisition and detection
High-reading control wells: cells + 30 nL DMSO; low-reading control wells: 10 µM AM-5308.
IC50 (nM) was calculated using GraphPad Prism 8 software and the effect-dose curves of the compound were plotted. Table 1 Bioactivity data of the compound of the present application
Compound `COc1ccc2c(NC(=O)c3ccc(NS(=O)(=O)CCO)cc3N3CCC4(CC3)CC4)ccnc2c1` [Compound 95] gave a half-inhibitory concentration (IC50) of 98.9 nM.

As for `O=C(Nc1cccc2cc(Cl)ccc12)c1ccc(NS(=O)(=O)CCO)cc1N1CCC2(CC1)CC2` [Compound 5, {6-azaspiro[2.5]octan-6-yl}-N-(6-chloronaphthalen-1-yl)-4-(2-hydroxyethanesulfonylamino) benzamide], the midpoint of inhibition, the IC50, lay at 369 nM.

`CC1CCn2c1nc1c(NC(=O)c3ccc(NS(=O)(=O)CCO)cc3N3CCC4(CC3)CC4)cccc12` (stereo not drawn) [Compound 106, 4-(2-hydroxyethanesulfonylamino) -N-(3-methyl-2,3-dihydro-1H-benzo[d]pyrrolo[1,2-a]imidazol-5-yl)-2-(6-azaspiro[2.5]octan-6-yl)benzamide] displayed an IC50 of 125 nM.

Compound `O=C(Nc1cc(F)cc2c1nc1n2[C@H]2CC[C@@H]1C2)c1ccc(NS(=O)(=O)CCO)cc1N1CCC2(CC1)CC2` [Compound 113a, N-((1S,4R)-8-fluoro-1,2,3,4-tetrahydro-1,4-methylenebenzo[4,5]imidazo [1,2-a]pyridin-6-yl)4-(2-hydroxyethanesulfonylamino) -2-(6-azaspiro[2.5]octan-6-yl)benzamide] gave an IC50 of 97.9 nM.

Compound `O=C(Nc1cccc2c1nc1n2CCC1(F)F)c1ccc(NS(=O)(=O)CCO)cc1C1=CCC2(CC1)CC2` [Compound 90, N-(3,3-difluoro-2,3-dihydro-1H-benzo[d]pyrrolo[1,2-a]imidazol-5-yl)-4-(2-hydroxyethanesulfonylamino)-2-(spiro[2.5]oct-5-en-6-yl)benzamide] yielded an IC50 of 71.2 nM.

In the case of `O=C(Nc1cccc2ccccc12)c1ccc(NS(=O)(=O)CCO)cc1N1CCC2(CC1)CC2` [Compound 2, 2-{6-azaspiro[2.5]octan-6-yl}-4-(2-hydroxyethanesulfonylamino) -N-(naphthalen-1-yl)benzamide], the IC50 was 568 nM.

`Cc1ccc2c(NC(=O)c3ccc(NS(=O)(=O)CCO)cc3N3CCC4(CC3)CC4)cccc2c1` [Compound 4, 2-{6-azaspiro[2.5]octan-6-yl}-4-(2-hydroxyethanesulfonylamino) -N-(6-methylnaphthalen-1-yl)benzamide] showed an IC50 of 478 nM.

For the compound `Cc1cc(NC(=O)c2ccc(NS(=O)(=O)CCO)cc2N2CCC3(CC2)CC3)c2nc3n(c2c1)[C@H]1CC[C@@H]3C1` [Compound 99, 4-(2-hydroxyethanesulfonylamino)-N-((1S,4R)-8-methyl-1,2,3,4-tetrahydro-1,4-methylenebenzo[4,5]imidazo[1,2-a]pyridin-6-yl)-2-(6-azaspiro[2.5]octan-6-yl)benzamide], the IC50 was 109 nM.

Compound `Cc1cc(NC(=O)c2ccc(NS(=O)(=O)CCO)cc2N2CCC3(CC2)CC3)nc2c1nc1n2CC(F)(F)CC1` [Compound 64, N-(8,8-difluoro-4-methyl-pyrido[2,3-d]imidazo[1,2-a]piperidin-2-yl)-4-(2-hydroxyethanesulfonylamino)-2-(6-azaspiro[2.5]octan-6-yl)benzamide] had an IC50 of 763 nM.

Compound `O=C(Nc1cccc2c1CCC1(CCCC1)C2)c1ccc(NS(=O)(=O)CCO)cc1N1CCC2(CC1)CC2` [Compound 51, 2-{6-azaspiro[2.5]octan-6-yl}-N-{3',4'-dihydro-1'H-spiro[cyclopentane-1,2'-naphthalen]-5'-yl}-4-(2-hydroxyethanesulfonylamino)benzamide] came in with an IC50 of 258 nM.

For `O=C(Nc1cccc2ccc(F)cc12)c1ccc(NS(=O)(=O)CCO)cc1N1CCC2(CC1)CC2` [Compound 6, 2-{6-azaspiro[2.5]octan-6-yl}-N-(7-fluoronaphthalen-1-yl)-4-(2-hydroxyethanesulfonylamino) benzamide], the IC50 stood at 976 nM.

Still in this assay, the particulars now being: cultured 4 days, Hoechst 33342 nuclear count, 0.1% DMSO.
In the case of `O=C(Nc1cccc2c1nc1n2C2CCC1CC2)c1ccc(NS(=O)(=O)CCO)cc1N1CCC2(CC1)CC2` [Compound 100, 4-(2-hydroxyethanesulfonylamino)-2-(6-azaspiro[2.5]octan-6-yl)-N-(1,2,3,4-tetrahydro-1,4-ethylbenzo[4,5]imidazo[1,2-a]pyridin-6-yl)benzamide], the IC50 was 110 nM.

(Values after patent publication EP4567032A1, “KIF18A INHIBITOR COMPOUND, AND PHARMACEUTICAL COMPOSITION AND PREPARATION METHOD THEREFOR AND USE THEREOF” (Changchun Genescience Pharmaceutical Co., Ltd., priority 2022, dated 2024).)
